PMC1976805, “Preclinical pharmacokinetics of benznidazole” (British Journal of Cancer, 1984)
Where “and” joins values, the source holds several entries; their conditions need not be identical. Identical values can stand only once. Like-named read-outs stand apart in the source and are kept apart here.

Experiments:
[1] = Whole plasma pharmacokinetics in dogs (HPLC); format: in vivo, dog
Source text: Br. J. Cancer (1984), 50, 291-303 Preclinical pharmacokinetics of benznidazole P. Workman', R.A.S. White2, M.I. Walton', L.N. Owen2* & P.R. Twentyman' 1MRC Clinical Oncology and Radiotherapeutics Unit, MRC Centre, Hills Road, Cambridge CB2 2QH, and 2Department of Clinical Veterinary Medicine, University of Cambridge, Madingley Road, Cambridge CB3 OES, UK. […] We have investigated the detailed pharmacokinetics of benznidazole in mice, dogs and sheep to provide a data base for the estimation of doses required for chemosensitization in man. Pharmacokinetic behaviour was linear except at high doses in mice. Absorption was fairly rapid and bioavailability was complete following both i.p. administration in mice and oral administration in dogs. Elimination t4 values were longer than for MISO, being 90 min in mice, 4-5 h in sheep and 9-11 h in dogs. At doses giving linear kinetics, peak whole plasma concentrations per administered mgkg-1 were 0.75 jigml-1 for the i.p. route in mice and 1.8jugmlP' for the oral route in dogs. Though between 39 and 59% of plasma benznidazole was bound to protein, tissue penetration was generally good. Tissue/whole plasma ratios ranged from 59-99% for transplantable mouse tumours and from 14-70% for spontaneous dog neoplasms. Nervous tissue penetration was similar to that in tumours: brain/whole plasma ratios averaged between 61 and 76% in mice and 42% in dogs, while peripheral nerve/whole plasma ratios in dogs averaged 74%. Mean liver/whole plasma ratios were 42% and 71% in BALB/c and C3H/He mouse strains respectively. Only -5% of the administered dose was excreted unchanged in the urine, indicating the likelihood of extensive metabolism. […] Enhancement of CCNU response is likely to require circulating benznidazole concentrations of 10-30 pgml-1 and we predict that these will be obtained with oral doses of 6-20 mgkg- 1 in man. […] This enhancement, or chemosensitization, is usually greater than that seen in dose-limiting normal tissues, resulting in an improved therapeutic index. Because of the relatively high doses of MISO usually required for chemosensitization in mice (see above refs), and also because of its neurotoxicity in man (Dische et al., 1977), we have been interested in finding an improved chemosensitizer. […] The lipophilic ana- logue benznidazole (N-benzyl-(2-nitroimidazolyl) acetamide, Ro 07-1051; Radanil; Roche), the structure of which is shown in Figure 1, was selected for detailed study because of its ability to *Present address: Animal Health Trust, Small Animals Centre, Lanwades Park, Kennett, Newmarket, Suffolk CB8 7PN, UK. Correspondence: P. Workman. […] These findings have been confirmed independently by Siemann et al. (1983). Although benznidazole is used quite widely in South America to treat patients with the trypanosomal infection Chagas' disease or with mucotaneous Leishmaniasis (Barclay et al., 1978; Cerisola et al., 1978; Coura et al., 1978; Fava et al., 1978), apart from our preliminary studies (White et al., 1982) the only published data on its pharmaco- kinetics are for human plasma concentrations measured by polarography (Raaflub & Ziegler, 1979; Raaflub, 1980). Here we describe the pharmacokinetics of benznidazole in the mouse, sheep and dog, as determined by high-performance liquid chromatography (HPLC). […] The Macmillan Press Ltd., 1984 292 P. WORKMAN et al. particularly on plasma and tumour concentrations, have been used as a basis for the estimation of the benznidazole doses required in a Phase I trial of benznidazole plus CCNU, at present ongoing in our Unit. Materials and methods Animals and tumours Adult inbred male BALB/c mice were obtained from OLAC (Southern) Ltd. (Bicester, UK) and adult inbred C3H/He mice of both sexes from OLAC and our own breeding colony. Mice were housed in plastic cages on sawdust bedding made from soft white woods, and allowed laboratory chow and water ad lib. They were used at 20-35 g body wt.

bovine serum albumin = system: bovine serum albumin; design: method as in Clarke & Wardman, cited in Watts et al., 1980; details: ref Clarke & Wardman, cited in Watts et al., 1980; cited from earlier work
[2] = Maximum tolerated dose in mice; details: male, mouse, in vivo, ip; BALB/c mice, i.p., highest dose used; read-out: maximum tolerated dose (about)
Source text: (§1) Br. J. Cancer (1984), 50, 291-303 Preclinical pharmacokinetics of benznidazole P. Workman', R.A.S. White2, M.I. Walton', L.N. Owen2* & P.R. Twentyman' 1MRC Clinical Oncology and Radiotherapeutics Unit, MRC Centre, Hills Road, Cambridge CB2 2QH, and 2Department of Clinical Veterinary Medicine, University of Cambridge, Madingley Road, Cambridge CB3 OES, UK. […] We have investigated the detailed pharmacokinetics of benznidazole in mice, dogs and sheep to provide a data base for the estimation of doses required for chemosensitization in man. Pharmacokinetic behaviour was linear except at high doses in mice. Absorption was fairly rapid and bioavailability was complete following both i.p. administration in mice and oral administration in dogs. […] Although benznidazole is used quite widely in South America to treat patients with the trypanosomal infection Chagas' disease or with mucotaneous Leishmaniasis (Barclay et al., 1978; Cerisola et al., 1978; Coura et al., 1978; Fava et al., 1978), apart from our preliminary studies (White et al., 1982) the only published data on its pharmaco- kinetics are for human plasma concentrations measured by polarography (Raaflub & Ziegler, 1979; Raaflub, 1980). Here we describe the pharmacokinetics of benznidazole in the mouse, sheep and dog, as determined by high-performance liquid chromatography (HPLC). […]

plasma proteins = test: Binding to plasma proteins in vitro, mouse plasma (ultrafiltrate); format: in vitro ADME
Source text: as §1, with “dogs. Elimination t4 values were longer than for MISO, being 90 min in mice, 4-5 h in sheep and 9-11 h in dogs. At doses giving linear kinetics, peak whole plasma concentrations per administered mgkg-1 were 0.75 jigml-1 for the i.p. route in mice and 1.8jugmlP' for the oral route in dogs. Though between 39 and 59% of plasma benznidazole was bound to protein, tissue penetration was generally good. Tissue/whole plasma ratios ranged from 59-99% for transplantable mouse tumours and from 14-70% for spontaneous dog neoplasms. Nervous tissue penetration was similar to that in tumours: brain/whole plasma ratios averaged between 61 and 76% in mice and 42% in dogs, while peripheral nerve/whole plasma ratios in dogs averaged 74%.” for “dogs.”

[3] = dog A, collie crossbred 18 kg, 25 mg kg-1 oral
[4] = dog B, collie crossbred 28 kg, 25 mg kg-1 oral

In the case of `O=C(Cn1ccnc1[N+](=O)[O-])NCc1ccccc1` [benznidazole, N-benzyl-(2-nitroimidazolyl) acetamide], the half-life ([1]; collie crossbred, dog, plasma, po, 25 mg/kg, dog C, 25 mg kg-1 oral, 95% confidence limits 8.9-10.6, read-out: elimination half-life t1/2β (converted)) is reported as 9.7 h, the AUC(0-inf) ([1]; collie crossbred, dog, plasma, po, 25 mg/kg, dog D, 25 mg kg-1 oral) is reported as 804 µg·h/mL and the half-life ([1]; collie crossbred, dog, plasma, po, 25 mg/kg, dog D, 25 mg kg-1 oral, 95% confidence limits 8.9-10.6, read-out: elimination half-life t1/2β (converted)) is reported as 9.7 h. For the same compound, the half-life ([1]; collie crossbred, dog, plasma, po, larger crossbred dogs, oral administration, read-out: elimination t1/2, range) was 9.5 to 11.2 h, the peak time [1, 3] was 5 h and the “peak whole plasma concentration” value [1, 3] was 48.4 µg/mL. For the same compound, the peak time [1, 4] was 3 h, the “peak whole plasma concentration” value [1, 4] was 52.2 µg/mL and the peak time ([1]; dog C, 5 mg kg-1 i.v.) was 0.083 h. For the same compound, the peak time ([1]; dog C, 12.5 mg kg-1 oral) was 1 h, the peak time ([1]; dog C, 25 mg kg-1 oral) was 5 h and the “peak whole plasma concentration” value ([1]; dog C, collie crossbred 28 kg, 5 mg kg-1 i.v.) was 12.7 µg/mL. For the same compound, the “peak whole plasma concentration” value ([1]; dog C, collie crossbred 28 kg, 12.5 mg kg-1 oral) was 26.5 µg/mL, the “peak whole plasma concentration” value ([1]; dog C, collie crossbred 28 kg, 25 mg kg-1 oral) was 38.9 µg/mL and the peak time ([1]; dog D, 5 mg kg-1 i.v.) was 0.083 h. For the same compound, the peak time ([1]; dog D, 12.5 mg kg-1 oral) was 12 h, the peak time ([1]; dog D, 25 mg kg-1 oral) was 3 h and the “peak whole plasma concentration” value ([1]; dog D, collie crossbred 20 kg, 5 mg kg-1 i.v.) was 12.4 µg/mL. For the same compound, the “peak whole plasma concentration” value ([1]; dog D, collie crossbred 20 kg, 12.5 mg kg-1 oral (slow, prolonged absorption)) was 13.1 µg/mL, the “peak whole plasma concentration” value ([1]; dog D, collie crossbred 20 kg, 25 mg kg-1 oral) was 46.5 µg/mL and the “peak whole plasma concentration” value ([1]; dog E, beagle 9 kg, 50 mg kg-1 oral) was 59.8 µg/mL. For the same compound, the peak time ([1]; dog F, 50 mg kg-1 oral) was 3 h, the “peak whole plasma concentration” value ([1]; dog F, beagle 10 kg, 50 mg kg-1 oral) was 54.8 µg/mL and the Tmax ([1]; dog, plasma, po, dogs, discussion summary, read-out: time of peak concentrations after oral dosing) was 3 to 5 h. The “overall oral bioavailability (dose-normalised AUC0-∞ oral vs i.v.)” value ([1]; dogs C and D) was “about 130%”, the “peak concentrations readily achieved” value ([1]; dogs, oral doses of 25-50 mg kg-1) was 50 µg/mL and the “average peak whole plasma concentration” value ([1]; large crossbred dogs, 12.5 mg kg-1 oral) was 20 µg/mL. The “average peak whole plasma concentration” value ([1]; large crossbred dogs, 25 mg kg-1 oral) was 47 µg/mL, the “mean peak whole plasma concentration per administered mg kg-1” value ([1]; large crossbred dogs, oral route (s.e., n=6)) was 1.8 µg ml-1 and 1.77 + 0.17 µg ml-1 and the binding (bovine serum albumin) was 46%. For the same compound, the MTD [2] was ~832 mg/kg, the “extent of binding to plasma proteins in vitro” value (plasma proteins; BALB/c mice) was 38% and the “extent of binding to plasma proteins in vitro” value (plasma proteins; C3H/He mice) was 39%. For the same compound, the “binding to plasma proteins” value (plasma proteins; mouse, discussion summary) was 39%.
